Assays:
A2058 human melanoma [1] = assay: chemotherapy, RIT and combination of chemotherapy and RIT in A2058 melanoma-bearing mice; type: in vivo; conditions: FIG. 4A
Experimental: Animal model and therapy studies. All animal studies were carried out in accordance with the guidelines of the Institutes for Animal Studies at the Albert Einstein College of Medicine. For RIT studies, 6-12 week-old female nude mice were implanted subcutaneously with 8×10^6 A2058 human melanoma cells into the right flank and used for therapeutic experiments 12 days after tumor volumes were approximately 0.15 cm^3 (0.02-0.4 cm^3).
For the experiment comparing the efficacy of chemotherapy, RIT and combination of chemotherapy, and RIT in A2058 melanoma-bearing mice, mice were inoculated with A2058 melanoma cells, randomized into groups of five after tumor volumes reached 0.15 cm^3 (0.02-0.4 cm^3). On Day 0 the treatment of groups #1 and 2 with 50 mg/kg DTIC for 5 consecutive days IP was initiated. Mice in group #3 received a single IP injection of 1 mCi ^188Re-6D2 mAb on Day 0. Twenty-four hrs after completion of pre-treatment with DTIC (Day 6), mice in group #2 received single IP dose of 1 mCi ^188Re-6D2 mAb. Group #4 was given PBS IP on Day 0.
Statistical analysis. The Wilcoxon rank sum test was used to compare tumor sizes between different treatment groups in therapy studies. Differences were considered statistically significant when P values were <0.05.

mouse melanoma models = conditions: 50 mg/kg/day×5 days; Fodstad et al. 1980; cited from earlier work
metastatic melanoma = conditions: patients with metastatic melanoma; Sun and Schuchter, 2001; cited from earlier work
A2058 tumor metabolism = assay: ^18F-FDG microPET of RIT or chemotherapy treated melanoma-bearing mice; type: in vivo; conditions: re-imaged one week after initial PET scan; FIG. 5
Experimental: MicroPositron Emission Tomography (microPET) of RIT or chemotherapy treated melanoma-bearing mice. To understand the effects of RIT with melanin-binding mAbs and chemotherapy with DTIC on A2058 tumor metabolism, microPET was performed of mice treated with DTIC or with RIT. For this purpose 6-7 mm in diameter tumor-bearing mice were fasted for 3 hrs, then placed in an anesthesia chamber with 1.5% isoflurane-oxygen mixture. Anesthesia continued through the IV injection, during a 1 hr uptake and through the imaging portion of the procedure. Each mouse was placed on a heating pad before scanning to maintain normal body temperature. Mice were injected via tail-vein with 11.1 to 14.8 MBq (300 to 400 μCi) ^18F-FDG and 1 hr later imaged in an R4 microPET scanner manufactured by CTI Concorde. The Full Width at Half Maximum for the R4 is about 2.1 mm with a field of view of 120 mm and a depth of field of 78 mm. Images were acquired for 10 minutes with a lower level discrimination of 350 keV and upper level discrimination of 650 keV. The timing window was set to 6 nsec. All of the default settings were selected during the histogram process. […] Data corrected for dead time counting losses, arc correction, random coincidences and the measured uniformity of detector responses (i.e. normalized) but not corrected for attenuation or scatter. […]

A2058 human melanoma [2] = assay: histology of A2058 tumors from DTIC-treated mice (melanin release); type: in vivo; conditions: 50 mg/kg IP for 5 days; H&E, iron stain, melanin bleach; FIG. 3
Experimental: Combination of chemotherapy and RIT. For combined chemotherapy with dacarbazine and RIT of A2058 melanoma-bearing nude mice, a preliminary experiment was performed which was aimed at determining the tolerability of dacarbazine by tumor-bearing mice and the ability of dacarbazine treatment to release some melanin from the melanoma cells. For this purpose 10 mg/mL dacarbazine in citrate buffer with pH ˜5.5 was prepared by dissolving 100 mg dacarbazine (Sigma) in 9.5 mL citrate buffer, pH 3.9 and 0.5 mL 0.1 M HCl. Five mice with A2058 tumors were treated for 5 days IP with 50 mg/kg dacarbazine (1.1 mg/mouse). Three days after completion of DTIC treatment, two mice were sacrificed, their tumors removed, fixed in ethanol/buffered formalin, cut into 5 μm slices and analyzed histologically for the presence of melanin by staining with hematoxylin and eosin (H&E), iron staining or by melanin bleach. The slides were viewed under 400× magnification in polarized light.

Structure (SMILES): CN(C)N=Nc1[nH]cnc1C(N)=O [DTIC, 5-(3,3-dimethyl-1-triazeno)imidazole-4-carboxamide]
- tumor growth from day 15 (A2058 human melanoma [1]; compared with combined treatment or RIT alone, p=0.02): started to grow much faster
- tumor growth up to Day 15 (A2058 human melanoma [1]; early time points post-therapy, compared with RIT alone): more effective in impairing tumor growth than RIT alone
- tumor growth (mouse melanoma models): effectively slowed tumor growth
- response rate (metastatic melanoma): 15% to 20%
- ^18F-FDG uptake in tumors (A2058 tumor metabolism): became less diffuse and concentrated in the center of the tumor
- release of melanin from tumor cells (histology) (A2058 human melanoma [2]): releases some melanin from the cells
